Columns and labels:
Test in all cases: relative viability (nuclei count vs DMSO), 5 days (fraction); higher = more cells survive
[1] = tested on: HCC-15
How it was run: (§1)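 Lung cancer cell lines were pin-tool dosed in 1536-well plates on the day after seeding, with either a lone drug or a fixed anchor-drug dose plus five library-drug doses (not always all listed) in √10 steps. Nuclei were counted on 4× images after 5 days. Relative viability is the ratio of treated-well to vehicle-well nuclei counts, with each value a median of duplicate plates.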

[2] = tested on: HCC-366
How it was run: as §1

[3] = tested on: NCI-H358
How it was run: as §1

[4] = tested on: NCI-H1755
How it was run: as §1

[5] = tested on: NCI-H2342
How it was run: as §1

[6] = tested on: LC-2-ad
How it was run: as §1

[7] = tested on: NCI-H1437
How it was run: as §1

[8] = tested on: EMC-BAC-2
How it was run: as §1

[9] = tested on: NCI-H2347
How it was run: as §1

[10] = tested on: NCI-H1793
How it was run: as §1

[11] = tested on: PC-14
How it was run: as §1

[12] = tested on: NCI-H1792
How it was run: as §1

[13] = tested on: NCI-H23
How it was run: as §1

[14] = tested on: NCI-H650
How it was run: as §1

[15] = tested on: NCI-H1915
How it was run: as §1

[16] = tested on: NCI-H1395
How it was run: as §1

[17] = tested on: 201T
How it was run: as §1

## Cc1cn(-c2cc(NC(=O)c3ccc(C)c(Nc4nccc(-c5cccnc5)n4)c3)cc(C(F)(F)F)c2)cn1 [Nilotinib] + NC(=O)Nc1cc(-c2cccc(F)c2)sc1C(=O)N[C@H]1CCCNC1 [AZD7762] (partner 0.2 µM)
[1]; first compound 0.001 µM
  relative viability: 1.1
[1]; first compound 0.003162 µM
  relative viability: 1.28
[1]; first compound 0.01 µM
  relative viability: 1.39
[1]; first compound 0.03162 µM
  relative viability: 1.25
[1]; first compound 0.1 µM
  relative viability: 1.19
[2]; first compound 0.001 µM
  relative viability: 0.18
[2]; first compound 0.003162 µM
  relative viability: 0.231
[2]; first compound 0.01 µM
  relative viability: 0.264
[2]; first compound 0.03162 µM
  relative viability: 0.204
[2]; first compound 0.1 µM
  relative viability: 0.115
[3]; first compound 0.001 µM
  relative viability: 0.458
[3]; first compound 0.003162 µM
  relative viability: 0.539
[3]; first compound 0.01 µM
  relative viability: 0.556
[3]; first compound 0.03162 µM
  relative viability: 0.459
[3]; first compound 0.1 µM
  relative viability: 0.523
[4]; first compound 0.001 µM
  relative viability: 0.412
[4]; first compound 0.003162 µM
  relative viability: 0.499
[4]; first compound 0.01 µM
  relative viability: 0.399
[4]; first compound 0.03162 µM
  relative viability: 0.352
[4]; first compound 0.1 µM
  relative viability: 0.4
[5]; first compound 0.001 µM
  relative viability: 0.425
[5]; first compound 0.003162 µM
  relative viability: 0.315
[5]; first compound 0.01 µM
  relative viability: 0.411
[5]; first compound 0.03162 µM
  relative viability: 0.463
[5]; first compound 0.1 µM
  relative viability: 0.427
[6]; first compound 0.001 µM
  relative viability: 0.855
[6]; first compound 0.003162 µM
  relative viability: 1.01
[6]; first compound 0.01 µM
  relative viability: 1.02
[6]; first compound 0.03162 µM
  relative viability: 0.748
[6]; first compound 0.1 µM
  relative viability: 0.377
[7]; first compound 0.001 µM
  relative viability: 1.16
[7]; first compound 0.003162 µM
  relative viability: 0.888
[7]; first compound 0.01 µM
  relative viability: 1.12
[7]; first compound 0.03162 µM
  relative viability: 0.899
[7]; first compound 0.1 µM
  relative viability: 1.1
[8]; first compound 0.001 µM
  relative viability: 1.05
[8]; first compound 0.003162 µM
  relative viability: 1.02
[8]; first compound 0.01 µM
  relative viability: 1.14
[8]; first compound 0.03162 µM
  relative viability: 1.02
[8]; first compound 0.1 µM
  relative viability: 1.03
[9]; first compound 0.001 µM
  relative viability: 0.691
[9]; first compound 0.003162 µM
  relative viability: 0.597
[9]; first compound 0.01 µM
  relative viability: 0.748
[9]; first compound 0.03162 µM
  relative viability: 0.567
[9]; first compound 0.1 µM
  relative viability: 0.596
[10]; first compound 0.001 µM
  relative viability: 0.388
[10]; first compound 0.003162 µM
  relative viability: 0.318
[10]; first compound 0.01 µM
  relative viability: 0.303
[10]; first compound 0.03162 µM
  relative viability: 0.243
[10]; first compound 0.1 µM
  relative viability: 0.146
[11]; first compound 0.001 µM
  relative viability: 0.359
[11]; first compound 0.003162 µM
  relative viability: 0.285
[11]; first compound 0.01 µM
  relative viability: 0.399
[11]; first compound 0.03162 µM
  relative viability: 0.305
[12]; first compound 0.001 µM
  relative viability: 0.483
[12]; first compound 0.003162 µM
  relative viability: 0.638
[12]; first compound 0.01 µM
  relative viability: 0.467
[12]; first compound 0.03162 µM
  relative viability: 0.385
[12]; first compound 0.1 µM
  relative viability: 0.263
[13]; first compound 0.001 µM
  relative viability: 0.186
[13]; first compound 0.003162 µM
  relative viability: 0.221
[13]; first compound 0.01 µM
  relative viability: 0.154
[13]; first compound 0.03162 µM
  relative viability: 0.152
[13]; first compound 0.1 µM
  relative viability: 0.122
[14]; first compound 0.001 µM
  relative viability: 1.08
[14]; first compound 0.003162 µM
  relative viability: 1.01
[14]; first compound 0.01 µM
  relative viability: 0.914
[14]; first compound 0.03162 µM
  relative viability: 0.918
[14]; first compound 0.1 µM
  relative viability: 0.721
[15]; first compound 0.001 µM
  relative viability: 0.682
[15]; first compound 0.003162 µM
  relative viability: 0.683
[15]; first compound 0.01 µM
  relative viability: 0.718
[15]; first compound 0.03162 µM
  relative viability: 0.67
[15]; first compound 0.1 µM
  relative viability: 0.619
[16]; first compound 0.001 µM
  relative viability: 0.4
[16]; first compound 0.01 µM
  relative viability: 0.37
[16]; first compound 0.03162 µM
  relative viability: 0.361
[16]; first compound 0.1 µM
  relative viability: 0.362
[17]; first compound 0.001 µM
  relative viability: 0.568
[17]; first compound 0.003162 µM
  relative viability: 0.546
[17]; first compound 0.01 µM
  relative viability: 0.563
[17]; first compound 0.03162 µM
  relative viability: 0.424
[17]; first compound 0.1 µM
  relative viability: 0.317
